Experimental data published in patent publication US9663496B2, “AMPK-activating heterocyclic compounds and methods for using the same” (Rigel Pharmaceuticals, Inc., priority 2010, dated 2017).

Molecular target: AMPK
Experiment: AMPK activation, enzyme-linked immunosorbent assay
Assay type: biochemical
Conditions: EC50 for AMPK activation, ELISA
In short: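 Test compounds were added, and kinase activation was then detected by immunoassay following established kit procedures.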

Compound | EC50
CS(=O)(=O)c1ccc(C(=O)C2CCN(C(=O)c3ccc(C(=O)Nc4ccc(Oc5ccc(F)cc5)nc4)cn3)CC2)cc1 [Compound 224, N-(6-(4-fluorophenoxy)pyridin-3-yl)-6-(4-(4-(methylsulfonyl)benzoyl)piperidine-1-carbonyl)nicotinamide] | < 0.5 µM
COc1ccc(C(=O)C2CCN(C(=O)c3ccc(C(=O)N(C)C4CCN(Cc5ccc(C#N)cc5)CC4)cn3)CC2)cc1 [Compound 482, N-(1-(4-cyanobenzyl)piperidin-4-yl)-6-(4-(4-methoxybenzoyl)piperidine-1-carbonyl)-N-methylnicotinamide] | < 0.5 µM
N#Cc1ccc(CN2CCC(NC(=O)c3ccc(C(=O)N4CCC(C(F)c5ccc(F)cc5)CC4)cn3)CC2)cc1 (centres unmarked) [Compound 138, N-(1-(4-cyanobenzyl)piperidin-4-yl)-5-(4-(fluoro(4-fluorophenyl)methyl)piperidine-1-carbonyl)picolinamide] | < 0.5 µM
N#Cc1ccc(CN2CCC(NC(=O)c3ccc(C(=O)N4CCN(c5ccc(F)cc5)CC4)cn3)CC2)cc1 [Compound 341, N-(1-(4-cyanobenzyl)piperidin-4-yl)-5-(4-(4-fluorophenyl)piperazine-1-carbonyl)picolinamide] | < 0.5 µM
N#Cc1ccc(CN2CC[C@H](NC(=O)c3ccc(C(=O)N4CCN(Cc5ccc(F)cc5)CC4)cn3)C2)cc1 [Compound 123, (S)-N-(1-(4-cyanobenzyl)pyrrolidin-3-yl)-5-(4-(4-fluorobenzyl)piperazine-1-carbonyl)picolinamide] | < 0.5 µM
CC(C)Oc1ccc(CN2CCC(NC(=O)c3ccc(C(=O)N4CCC(C(=O)c5ccc(N6CCCC6)cc5)CC4)nc3)CC2)cc1 [Compound 446, N-(1-(4-isopropoxybenzyl)piperidin-4-yl)-6-(4-(4-(pyrrolidin-1-yl)benzoyl)piperidine-1-carbonyl)nicotinamide] | < 0.5 µM
O=C(NC1CCN(Cc2ccccc2)CC1)c1ccc(Nc2ccc(Oc3ccccc3)cc2)cn1 [Compound 113, N-(1-benzylpiperidin-4-yl)-5-(4-phenoxyphenylamino) picolinamide] | 1 to 5 µM
N#Cc1ccc(CN2CCC(NC(=O)c3ccc(C(=O)N4CC[C@H](Oc5ccc(F)cc5)C4)cn3)CC2)cc1 [Compound 270, (S)—N-(1-(4-cyanobenzyl)piperidin-4-yl)-5-(3-(4-fluorophenoxy)pyrrolidine-1-carbonyl)picolinamide] | < 0.5 µM
COc1ccc(CN2CCC(NC(=O)c3ccc(C(=O)N4CCC(C(=O)c5ccc(OC)cc5)CC4)nc3)CC2)cc1 [Compound 318, 6-(4-(4-methoxybenzoyl)piperidine-1-carbonyl)-N-(1-(4-methoxybenzyl)piperidin-4-yl)nicotinamide] | < 0.5 µM
N#Cc1ccc(CN2CCC3(CCN(C(=O)c4ccc(C(=O)N5CCN(Cc6ccc(F)cc6)CC5)cn4)CC3)C2)cc1 [Compound 15, 4-((8-(5-(4-(4-fluorobenzyl)piperazine-1-carbonyl)picolinoyl)-2,8-diazaspiro[4.5]decan-2-yl)methyl)benzonitrile] | 1 to 5 µM
N#Cc1ccc(CN2CCC(NC(=O)c3ccc(C(=O)N4CCN(c5ccc(C(F)(F)F)cc5)CC4)cn3)CC2)cc1 [Compound 339, N-(1-(4-cyanobenzyl)piperidin-4-yl)-5-(4-(4-(trifluoromethyl)phenyl)piperazine-1-carbonyl)picolinamide] | < 0.5 µM
COc1ccc(C(=O)C2CCN(C(=O)c3ccc(C(=O)NC4CCN(Cc5ccc(NC(=O)CCOCCOCCOCCNC(=O)CCCC[C@@H]6SC[C@@H]7NC(=O)N[C@@H]76)cc5)CC4)nc3)CC2)cc1 [Compound 403, 5-(4-(4-methoxybenzoyl)piperidine-1-carbonyl)-N-(1-(4-(14-oxo-18-((3aS,4S,6aR)-2-oxohexahydro-1H-thieno[3,4-d]imidazol-4-yl)-4,7,10-trioxa-13-azaoctadecanamido)benzyl)piperidin-4-yl)picolinamide] | > 10 µM
O=C(Nc1ccc(Oc2ccc(F)cc2)nc1)c1ccc(C(=O)N2CCN(Cc3ccc(F)cc3)CC2)nc1 [Compound 334, 6-(4-(4-fluorobenzyl)piperazine-1-carbonyl)-N-(6-(4-fluorophenoxy)pyridin-3-yl)nicotinamide] | < 0.5 µM
CC(=O)c1ccc(Oc2ccc(NC(=O)c3ccc(C(=O)N4CCC(Oc5ccc(S(C)(=O)=O)cc5)CC4)cn3)cn2)cc1 [Compound 259, N-(6-(4-acetylphenoxy)pyridin-3-yl)-5-(4-(4-(methylsulfonyl)phenoxy)piperidine-1-carbonyl)picolinamide] | < 0.5 µM
COc1ccc(C(=O)C2CCN(c3ccc(C(=O)NC4CCN(Cc5ccc(C#N)cc5)CC4)nc3)CC2)cc1 [Compound 302, N-(1-(4-cyanobenzyl)piperidin-4-yl)-5-(4-(4-methoxybenzoyl)piperidin-1-yl)picolinamide] | < 0.5 µM
CS(=O)(=O)Nc1ccc(OC2CCN(C(=O)c3ccc(C(=O)NC4CCN(Cc5ccc(C#N)cc5)CC4)cn3)CC2)cc1 [Compound 367, N-(1-(4-cyanobenzyl)piperidin-4-yl)-6-(4-(4-(methylsulfonamido)phenoxy)piperidine-1-carbonyl)nicotinamide] | > 10 µM
N#Cc1ccc(CN2CCC(NC(=O)c3ccc(C(=O)N4CCC(C(=O)c5cccs5)CC4)cn3)CC2)cc1 [Compound 419, N-(1-(4-cyanobenzyl)piperidin-4-yl)-5-(4-(thiophene-2-carbonyl)piperidine-1-carbonyl)picolinamide] | < 0.5 µM
CS(=O)(=O)Nc1ccc(CN2CCC(NC(=O)c3ccc(C(=O)N4CCC(Oc5ccc(C#N)cc5)CC4)nc3)CC2)cc1 [Compound 217, 6-(4-(4-cyanophenoxy)piperidine-1-carbonyl)-N-(1-(4-(methylsulfonamido)benzyl)piperidin-4-yl)nicotinamide] | > 10 µM
CS(=O)(=O)c1ccc(OC2CCN(C(=O)c3ccc(C(=O)Nc4ccc(Oc5ccc(C#N)cc5)nc4)cn3)CC2)cc1 [Compound 459, N-(6-(4-cyanophenoxy)pyridin-3-yl)-6-(4-(4-(methylsulfonyl)phenoxy)piperidine-1-carbonyl)nicotinamide] | < 0.5 µM
COc1ccc(CN2CCC(NC(=O)c3ccc(C(=O)N4CCC(Oc5ccc(S(F)(F)(F)(F)F)cc5)CC4)nc3)CC2)cc1 [Compound 495, N-(1-(4-methoxybenzyl)piperidin-4-yl)-6-(4-(4-(pentafluorosulfanyl)phenoxy)piperidine-1-carbonyl)nicotinamide] | < 0.5 µM
N#Cc1ccc(OC2CCN(C(=O)c3ccc(C(=O)Nc4ccc(Oc5ccc(F)cc5)nc4)cn3)CC2)cc1 [Compound 326, 6-(4-(4-cyanophenoxy)piperidine-1-carbonyl)-N-(6-(4-fluorophenoxy)pyridin-3-yl)nicotinamide] | < 0.5 µM
CCS(=O)(=O)c1ccc(C(=O)C2CCN(C(=O)c3ccc(C(=O)NC4CCN(Cc5ccc(C#N)cc5)CC4)nc3)CC2)cc1 [Compound 260, N-(1-(4-cyanobenzyl)piperidin-4-yl)-5-(4-(4-(ethylsulfonyl)benzoyl)piperidine-1-carbonyl)picolinamide] | < 0.5 µM
O=C(N[C@H]1CC[C@@H](Oc2ccc(F)cc2)CC1)c1ccc(C(=O)N2CCC(Oc3ccc(F)cc3)CC2)cn1 [Compound 312, N-((cis)-4-(4-fluorophenoxy)cyclohexyl)-5-(4-(4-fluorophenoxy)piperidine-1-carbonyl)picolinamide] | < 0.5 µM
